# B1: G-CSF: granulocyte colony-stimulation factor (protein, UniProt P09919 31-207, looked up)
# Granulocyte …: TPLGPASSLPQSFLLKCLEQVRKIQGDGAALQEKLVSECATYKLCHPEELVLLGHSLGIPWAPLSSCPSQALQLAGCLSQLHSGLFLYQGLLQALEGISPELGPTLDTLQLDVADFATTIWQQMEELGMAPALQPTQGAMPAFASAFQRRAGGVLVASHLQSFLEVSYRVLRHLAQP
# B2: M-CSF: macrophage colony-stimulation factor (protein, UniProt P09603 33-554, looked up)
# Macrophage colony-stimulating …: EEVSEYCSHMIGSGHLQSLQRLIDSQMETSCQITFEFVDQEQLKDPVCYLKKAFLLVQDIMEDTMRFRDNTPNAIAIVQLQELSLRLKSCFTKDYEEHDKACVRTFYETPLQLLEKVKNVFNETKNLLDKDWNIFSKNCNNSFAECSSQDVVTKPDCNCLYPKAIPSSDPASVSPHQPLAPSMAPVAGLTWEDSEGTEGSSLLPGEQPLHTVDPGSAKQRPPRSTCQSFEPPETPVVKDSTIGGSPQPRPSVGAFNPGMEDILDSAMGTNWVPEEASGEASEIPVPQGTELSPSRPGGGSMQTEPARPSNFLSASSPLPASAKGQQPADVTGTALPRVGPVRPTGQDWNHTPQKTDHPSALLRDPPEPGSPRISSLRPQGLSNPSTLSAQPQLSRSHSSGSVLPLGELEGRRSTRDRRSPAEPEGGPASEGAARPLPRFNSVPLTDTGHERQSEGSFSPQLQESVFHLLVPSVILVLLAVGGLLFYRWRRRSHQEPQRADSPLEQPEGSPLTQDDRQVELPV
# B3: IL-11: cytokine (protein, UniProt P20809 22-199, looked up)
# Interleukin-11: PGPPPGPPRVSPDPRAELDSTVLLTRSLLADTRQLAAQLRDKFPADGDHNLDSLPTLAMSAGALGALQLPGVLTRLRADLLSYLRHVQWLRRAGGSSLKTLEPELGTLQARLDRLLRRLQLLMSRLALPQPPPDPPAPPLAPPSSAWGGIRAAHAILGGLHLTLDWAVRGLLLLKTRL
# What was measured:
# HGFIN mRNA in HL-60 = assay: Northern analysis of HGFIN mRNA in differentiated HL-60; assay type: cell-based; settings: HL-60 differentiated to monocytes (TPA) or granulocytes (DMSO)
# Method: (§1) Cell Differentiation. Cell differentiation was performed with a myelomonocytic cell line, HL-60, or bone marrow mononuclear cells (BMNC). HL-60 cells were chemically differentiated with TPA and DMSO for monocytes and granulocytes respectively (Miura, et al. (2000) supra; Hegde, et al. (1999) Blood 94:1578-1589). BMNC were isolated from bone marrow aspirate of healthy donors using FICOLL HYPAQUE density gradient.
# Northern Analysis. Northern analysis for steady state HGFIN mRNA was performed as described (Rameshwar, et al. (1997) J. Immunol. 158:3417-3424). Total RNA was extracted from the experimental cells and 10 μg from each was separated in 1.2% agarose. RNA was transferred to nylon membranes (S & S NYTRAN, Keene, N.H.) and then hybridized with [α-^32P]-dATP-labeled cDNA probes specific for HGFIN or Id2. Membranes were stripped and then reprobed with cDNA for 18S rRNA. Probes were randomly labeled with [α-^32P]-dATP, 3000 Ci/mM, (Dupont/NEN, Boston, Mass.) using the PRIME-IT II random primer kit (Stratagene). […]
# HGFIN mRNA was studied in differentiated and undifferentiated HL-60 cells to determine if the expression of this gene was limited to normal bone marrow progenitors. […] Similar to normal progenitors, HGFIN mRNA was detected in differentiated HL-60. […]
# [1] = system: HGFIN mRNA in bone marrow stroma; assay: Northern analysis of HGFIN mRNA in stimulated bone marrow stroma; assay type: cell-based, human; settings: bone marrow stroma vs unstimulated
# Method: (§2) Cell Stimulation. Peripheral blood mononuclear cells (PBMC) were resuspended in RPMI 1640 containing 2% FCS at 10^6/ml. Cell suspension, 10 ml, was stimulated with 1 μg/ml of LPS. bone marrow stroma was stimulated in sera-free α-MEM (Sigma) with the following: 10 μg/ml SCF, 5 ng/ml IL-11, 5 U/ml […], 5 ng/ml […], 25 ng/ml NGF and […]. Dose-response curves with slot blots for HGFIN mRNA determined the optimal concentration of each stimulus. During stromal cell stimulation, culture media were supplemented with insulin-transferring-selenium-A (Life Technologies, Grand Island, N.Y.). In both types of cells, controls included parallel cultures in similar media. At 8 hours and 16 hours, total RNA was extracted from each experimental point and control and then analyzed by northern analyses for HGFIN mRNA.
# (§3) Northern Analysis. Northern analysis for steady state HGFIN mRNA was performed as described (Rameshwar, et al. (1997) J. Immunol. 158:3417-3424). Total RNA was extracted from the experimental cells and 10 μg from each was separated in 1.2% agarose. RNA was transferred to nylon membranes (S & S NYTRAN, Keene, N.H.) and then hybridized with [α-^32P]-dATP-labeled cDNA probes specific for HGFIN or Id2. Membranes were stripped and then reprobed with cDNA for 18S rRNA. Probes were randomly labeled with [α-^32P]-dATP, 3000 Ci/mM, (Dupont/NEN, Boston, Mass.) using the PRIME-IT II random primer kit (Stratagene). The membrane was placed in a PHOSPHOIMAGER cassette (Molecular Dynamics, Sunnyvale, Calif.) and then scanned at different times beginning at 6 hours to 24 hours on a PHOSPHOIMAGER (Molecular Dynamics). Negative results were not attributed to the lack of total RNA on the membrane since each was hybridized with a cDNA probe for 18S rRNA.
# The mesenchymal/stromal cells of the bone marrow produce most of the necessary soluble regulators that modulate bone marrow organ functions (Muller-Sieburg & Deryugina (1995) supra). Since HGFIN expression was altered in activated PBMC, the next set of studies examined the role of HGFIN in activated bone marrow stroma. The following stimulators were used: cytokines, SCF, IL-11, IL-1(α, β) and IL-6 and a neurotrophic factor, NGF. […] Densitometric scans were normalized with 18S rRNA and the fold (mean±SD) increase over unstimulated stroma was determined. […] However, together, the levels of HGFIN mRNA in the cytokine-stimulated cultures were much less than in stroma stimulated with NGF.
# HGFIN mRNA in PBMC = assay: Northern analysis of HGFIN mRNA in stimulated PBMC; assay type: cell-based, human; settings: 1 μg/ml LPS
# Method: as §2
# Northern Analysis. Northern analysis for steady state HGFIN mRNA was performed as described (Rameshwar, et al. (1997) J. Immunol. 158:3417-3424). Total RNA was extracted from the experimental cells and 10 μg from each was separated in 1.2% agarose. […]
# As differentiated immune cells express HGFIN, studies were performed to determining if HGFIN was also expressed when these differentiated cells were activated. […] Consistent with HGFIN expression in PBMC, HGFIN mRNA was detected in the unstimulated PBMC.
# Oct4 breast cancer cells = assay: Carboplatin treatment of tumors from Oct4 breast cancer cells in mice; assay type: in vivo, athymic BALB/c mice
# Method: As discussed above, female athymic BALB/c mice (4 weeks) were obtained from Harlan Laboratories (Somerville, N.J.) and housed in a laminar flow hood at an AAALAC-accredited facility. The use of mice was approved by the Institutional Animal Care and Use Committee, New Jersey Medical School (Newark, N.J.).
# Mice were inoculated with Oct4 cells where HGFIN expression was knocked down with siRNA. The cells were injected in a total volume of 0.2 mL subcutaneously in the dorsal flanks. Tumors were monitored daily and measured in two dimensions with a caliper and volume was calculated using the formula V=πr^2h, where r=radius and h=height. Animal were injected with carboplatin (50 mg/kg) on day 0 and day 3 of the test period. Tumors were palpated and tumor volume was measured every other day for two weeks (i.e., days 0, 2, 4, 6, 8, 10, 12 and 14).
# Id2 in BMNC = assay: Id2 protein in differentiated BMNC; assay type: cell-based, human
# Method: Further, BMNC cells were differentiated with M-CSF or G-CSF (500 U/ml for each) to monocytes and granulocytes, respectively. Undifferentiated cells were cultured in parallel with only media. Culture media were replaced at two-day intervals until cytochemical staining determined that >90% of the cells were differentiated. At this time, cell differentiation was terminated and the cells analyzed by northern analyses for Id2 and HGFIN mRNA, and by immunoblot for Id2 protein. For HL-60 cultures, cytochemical staining was performed after three days with 100-200 cells. Beginning at day 5, cells from cultures with BMNC were stained and daily thereafter. […]
# Western Blots. […] Extracts were centrifuged at 10,000 g for 10 minutes and then determined for total protein concentration using the BIO-RAD Protein Assay kit (BIO-RAD Laboratories, Hercules, Calif.). Extracts (15 Vig) were analyzed by western blot for Id2 protein as described (Rameshwar, et al. (2000) J. Immunol. 165:2271-2277). […] Alk Phos activity was detected with BCIP/NBT substrate System (Kirkeguard & Perry Laboratories, Gaithersburg, Md.). […]
# Northern blots were performed in four experiments, each with a different donor. […] However in undifferentiated BMNC (cultured in media alone), Id2 mRNA was detected in each of the four bone marrow donors. […]
# HGFIN mRNA in BMNC = assay: Northern analysis of HGFIN mRNA in BMNC cultured with M-CSF or G-CSF; assay type: cell-based, human
# Method: as §1
# Further, BMNC cells were differentiated with M-CSF or G-CSF (500 U/ml for each) to monocytes and granulocytes, respectively. Undifferentiated cells were cultured in parallel with only media. Culture media were replaced at two-day intervals until cytochemical staining determined that >90% of the cells were differentiated. At this time, cell differentiation was terminated and the cells analyzed by northern analyses for Id2 and HGFIN mRNA, and by immunoblot for Id2 protein. For HL-60 cultures, cytochemical staining was performed after three days with 100-200 cells. Beginning at day 5, cells from cultures with BMNC were stained and daily thereafter. Neutrophil and monocyte staining were performed with kits specific for […], respectively.
# as §3
# Since the HGFIN cDNA was isolated from bone marrow cell subsets, bone marrow and PB mononuclear cells were screened using northern analyses to study the expression of HGFIN. […] After the cells were >90% differentiated to monocytes and neutrophils, cells were analyzed for the expression of HGFIN mRNA by northern analyses.
# To verify that the expression of HGFIN was not due to activation by the two cytokines, northern analyses were performed with BMNC cultured with M-CSF or G-CSF and then analyzed for HGFIN mRNA before the cells were differentiated.
# [2] = BMNC >90% differentiated to monocytes or neutrophils
# [3] = BMNC cultured with cytokine, before the cells were differentiated
molecule,measurement,setting,value
12-0-tetradecanoylphorbol diester [TPA],HGFIN mRNA,HGFIN mRNA in HL-60,detected
"C[S+](C)[O-] [DMSO, dimethylsulfoxide]",HGFIN mRNA,HGFIN mRNA in HL-60,detected
IL-6: cytokine,HGFIN mRNA induction,[1],induced
"NGF: nerve growth factor, a neurotrophic factor",HGFIN mRNA induction,[1],induced
"SCF: Stem cell factor, cytokine",HGFIN mRNA induction,[1],induced
lipopolysaccharide [LPS],steady state HGFIN mRNA,HGFIN mRNA in PBMC; 8 hours,no difference
same,steady state HGFIN mRNA,HGFIN mRNA in PBMC; 16 hours,down-regulated
N.N.O=C([O-])C1(C(=O)[O-])CCC1.[Pt+2] [carboplatin],tumor cell volume vs before carboplatin treatment,"Oct4 breast cancer cells; 50 mg/kg, two weeks after second injection",statistically significant decreases
same,sensitivity of tumors to carboplatin,"Oct4 breast cancer cells; HGFIN knocked down with siRNA, 50 mg/kg day 0 and day 3, two weeks after second injection",more sensitive
B1,band for Id2 protein,Id2 in BMNC,very light to undetectable
same,HGFIN mRNA,HGFIN mRNA in BMNC; [2],detectable
same,HGFIN mRNA,HGFIN mRNA in BMNC; [3],no detectable HGFIN mRNA
B2,band for Id2 protein,Id2 in BMNC,very light to undetectable
same,HGFIN mRNA,HGFIN mRNA in BMNC; [2],detectable
same,HGFIN mRNA,HGFIN mRNA in BMNC; [3],no detectable HGFIN mRNA
B3,HGFIN mRNA induction,[1],induced

# Reference: patent publication US8383806B2, “Method of reversing carboplatin resistance by inhibition of HGFIN” (University of Medicine and Dentistry of New Jersey, priority 2000, dated 2013)
